From the METLIN SMRT retention time set (Domingo-Almenara et al. 2019) come the findings set out here.

The data set in a line: gradient 5% acetonitrile 3 min, to 50% in 2 min, to 85% in 15 min, held 3 min, 100 µL/min. The following applies: column: Zorbax Extend-C18 2.1 x 50 mm; eluents: water / acetonitrile, 0.1% formic acid. The method in brief:
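Retention times of pure standards were taken from adduct peaks that were selected by computer and manually inspected. Over 3 months, mixtures of ~100 molecules were run by HPLC–quadrupole time-of-flight mass spectrometry in positive and negative ionization mode. The Zorbax Extend-C18 column (2.1 × 50 mm, 1.8 μm) ran at 100 μL/min in water and acetonitrile, each containing 0.1% formic acid, with 40 μL dead volume and 900 μL dwell volume.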
In turn, `COCCn1cc(CCNC(=O)Nc2ccc(F)c(Cl)c2)c2cccnc21` registered an RP-LC retention time of 783 s.
Turning to `O=C(CSc1nnnn1-c1ccccc1)c1ccc(Cl)c(Cl)c1`, the RP-LC retention time came out at 1060 s.
The figure for `COc1cc([C@@H]2c3cc4c(cc3[C@H](O)[C@@H](CO)[C@@H]2C(=O)NC2CCCC2)OCO4)cc(OC)c1OC` is 689 s; for `COCCN1C(=O)c2cccn2CC1CNC(=O)c1ccc(Cc2c(C)noc2C)o1` (centres undefined) it is 679 s.
The figure for `CCCC(NC(=O)Cc1ccc(OCC)c(OCC)c1)C(=O)Nc1nc2ccccc2[nH]1` (centres undefined) is 1070 s; for `CCCN1CCN(C2CCN(C(=O)C(CC)CC)CC2)C1=O` it is 727 s.
For `CCC(=O)N1c2ccc(S(=O)(=O)CCC(=O)N3CCN(c4ccccc4F)CC3)cc2CC1C` (centres undefined), the RP-LC retention time amounted to 894 s.
The molecule `O=C(c1ccccc1F)N1CCC2(CC1)N=C(c1ccc(Cl)cc1)NO2` registered an RP-LC retention time of 876 s.
The figure for `COc1ccc(C(=O)Nc2c(-c3ccccc3)nc3ccccn23)cc1OC` is 608 s; for `Cc1ccc(S(=O)(=O)NC2CCN(C(=O)C3CCC3)CC2)cc1` it is 761 s; for `CCc1nc(OCC(=O)NCc2ccc(C)cc2)c2c(C)c(C)oc2n1` it is 999 s.
The figure for `COc1ccc(-c2noc(C3CCCN3C(=O)CNC(=O)c3ccccc3)n2)cc1` (centres undefined) is 792 s.
The same measure for `C#CCOCC1CCN(C(=O)CSCc2ccccc2)CC1`: 850 s.
`O=C(CCc1nnc2ccc(N3CCOCC3)nn12)N1CCN(c2ccccn2)CC1` returned an RP-LC retention time of 566 s.
The figure for `COc1ccccc1CNC(=O)c1ccc2c(c1)nc1n2CCN(Cc2ccccc2)C1=O` is 789 s; for `CCn1nnc2cc(-c3noc(C(C)NS(=O)(=O)c4ccc(C)cc4)n3)ccc21` (centres undefined) it is 846 s; for `O=C(NCCc1ccccc1)C1CCN(C(=O)c2ncn3c2COC(c2ccc(Cl)cc2)C3)CC1` (centres undefined) it is 815 s.
Turning to `Cc1ccc(CNC2=NCCNC23CCN(S(=O)(=O)c2ccccc2C)CC3)cc1`, the RP-LC retention time came out at 738 s.
The figure for `CC(=O)N(CC(=O)N1CCc2sccc2C1COc1ccc(F)cc1)CC1CCCO1` (centres undefined) is 813 s; for `CCOc1ccccc1C(=O)N1CCC2(CC1)NC(=O)c1cc(C)ccc1N2CC` it is 861 s.
The same measure for `CCc1nc(C2CCN(C(=O)C3(c4ccc(OC)cc4)CC3)CC2)n[nH]1`: 551 s; for `O=S(=O)(c1ccc2c(c1)CCCC2)N1CCCC1c1nc(-c2ccccc2)no1` (centres undefined): 1270 s.
The same measure for `CS(=O)(=O)Nc1ccc(C2(C(=O)NCc3cccc(Cl)c3)CCCCC2)cc1`: 948 s; for `CCC(C(=O)NCCc1c[nH]c2ccc(OC)cc12)n1nc(C)c2nn(-c3ccccc3)c(C)c2c1=O` (centres undefined): 895 s.
Molecule `CCOc1ccc(S(=O)(=O)NC2CC(=O)N(C3CC3)C2)cc1` (centres undefined) gave an RP-LC retention time of 652 s.
Take `O=C(Nc1ccc(Nc2cc(-n3ccnc3)ncn2)cc1)c1c[nH]c2ccccc12`: the RP-LC retention time was 562 s.
Take `CC(C)n1cc(CN2CCC3(CC2)CN(Cc2ccccc2)CC3CO)cn1` (centres undefined): the RP-LC retention time was 524 s.
The figure for `Cc1cccc(NC(=O)N2CCC3(CC2)NC(=O)c2ccccc2N3C)c1` is 616 s.
The figure for `COc1ccc(CNC(=O)Nc2nnc(-c3ccc4c(c3)CCCC4)o2)cc1` is 925 s; for `O=C(C1CCC1)N1CCc2sc(S(=O)(=O)NCc3ccccc3Cl)cc2C1` it is 923 s.
The same measure for `CCN1C(=O)c2cc(S(=O)(=O)Nc3ccc(F)c(F)c3)ccc2Oc2cccnc21`: 1050 s; for `CC(C)c1cc(=O)n(CC(=O)Nc2cccc3nsnc23)cn1`: 664 s.
For `COCCCNC(=O)C1CCCN(c2ncc(-c3cccc(F)c3)cn2)C1` (centres undefined), the RP-LC retention time came to 863 s.
In turn, `CC1CCN(CCCNc2ccc(-c3nc(-c4ccc(F)cc4)no3)cn2)CC1` registered an RP-LC retention time of 740 s.
On to `N#Cc1ccc(C(=O)Nc2cnc(N3CCCCC3)nc2)cc1`, for which the RP-LC retention time was found to be 862 s.
For the molecule `CC(C)(C)C(O)CCNC(=O)C(=O)Nc1cccc(N2CCCCC2=O)c1` (centres undefined), the RP-LC retention time came out at 650 s.
`CCCC(=O)Nc1ccc2c(c1)CN(C(=O)Cc1cccs1)C(C(=O)N(C)C)C2` (centres undefined) came in with an RP-LC retention time of 690 s.
The same measure for `O=C(NC1CCCCC1)c1cccc2c1CCN2C(=O)C1CC1`: 832 s; for `CC(C)n1nc2c(S(=O)(=O)N3CCCCC3)cccn2c1=O`: 803 s; for `O=C(c1cc2n(n1)CCCN(Cc1ccc(F)cc1)C2=O)N1CCN(c2ccccn2)CC1`: 802 s.
The figure for `CN(CC1(C)CCOCC1)C(=O)NC1CCCCC1` is 749 s.
The figure for `CCOC(=O)N1CCc2c(sc(NC(=O)c3cn(C)nc3OC)c2C#N)C1` is 776 s.
In the case of `COc1ccc(-c2cn3c(CC(=O)Nc4cccc(Cl)c4)csc3n2)cc1OC`, the RP-LC retention time was found to be 791 s.
The same measure for `CCCNC(=O)C1CCN(c2ccc(SCC(=O)Nc3ccc(C)c(Cl)c3)nn2)CC1`: 715 s; for `O=C(NCCc1ccccc1)C1=C2CCCN2c2ccc(F)cc2S1(=O)=O`: 909 s; for `Cc1ccccc1CNC(=O)Cn1c(=O)c2nnc(C)n2c2ncccc21`: 672 s.
As for `CC1CCCN(CC2CCN(S(=O)(=O)Cc3ccccc3Cl)CC2)C1` (centres undefined), the RP-LC retention time turned out to be 662 s.
In turn, `CC(C)Cc1ccc(S(=O)(=O)N2CCc3c(c(-c4nnc(-c5ccc(F)cc5)o4)nn3C)C2)cc1` showed an RP-LC retention time of 1180 s.
`Cc1nnc([C@@H]2CC(F)(F)CN2C(=O)c2ccc3ccccc3n2)o1` returned an RP-LC retention time of 756 s.
The same measure for `COc1cc(OC)c2c(C)c(CC(=O)N3CCC(C(N)=O)CC3)c(=O)oc2c1`: 649 s; for `CC1(C(=O)NCc2ccccc2)CCN(S(=O)(=O)c2cccc(C#N)c2)CC1`: 862 s.
The same measure for `COc1ccc(-c2coc3cc(OCC(=O)O)ccc3c2=O)cc1`: 765 s; for `CC1=C(c2ccccc2)S(=O)(=O)N=C1N1CCCN(C(=O)Cn2ccnc2C)CC1`: 589 s.
`CCN1CCCC1CN(CC(=O)N1CCNCC1)S(=O)(=O)c1c(C)cc(C)cc1C` (centres undefined) yielded an RP-LC retention time of 588 s.
The same measure for `CCc1cc(=O)n(CC(=O)NCCc2ccc(Cl)cc2)c(N2CCOCC2)n1`: 803 s; for `O=C(c1ccco1)N1N=C(c2ccco2)CC1c1ccc2nccnc2c1` (centres undefined): 718 s.
For the molecule `Cc1cccc(S(=O)(=O)N2CCC(c3nc(C(=O)N(C)C)c(C)o3)CC2)c1`, the RP-LC retention time was determined as 826 s.
The figure for `Cc1nc2scc(CC(=O)O)n2c(=O)c1C` is 592 s; for `Cc1nnc2cc(N3CCN(S(=O)(=O)c4cccc(C(F)(F)F)c4)CC3)cnn12` it is 730 s.
For `Cc1cc(C)c2c(N3CCSCC3)nc(C(=O)NCC3CC3)nc2n1`, the RP-LC retention time turned out to be 653 s.
The same measure for `CC(C)(C)c1csc(-c2csc(S(=O)(=O)NCc3ccc(Cl)cc3)c2)n1`: 1340 s.
With `Cn1c(C(=O)NCCc2c[nH]c3ccccc23)cc2c(-c3cccs3)nn(-c3ccccc3)c21`, the RP-LC retention time came out at 969 s.
`CCS(=O)(=O)Nc1ccc(C2(C(=O)N3CCCC(C)C3)CCCCC2)cc1` (centres undefined) gave an RP-LC retention time of 1010 s.
`CCn1c(C(=O)N2CCCC(C(=O)N3CCN(c4ccc(OC)cc4)CC3)C2)cc2sccc21` (centres undefined) yielded an RP-LC retention time of 885 s.
`CCn1c(=O)sc2cc(S(=O)(=O)N3CCC(C(=O)Nc4ccc(C)cc4)CC3)ccc21` came in with an RP-LC retention time of 940 s.
Turning to `O=C(NCCc1ccccc1)N(C1CCOCC1)C1CCN(Cc2cccc(F)c2)CC1`, the RP-LC retention time came out at 604 s.
`CCC(=O)N(C1CCOCC1)C1CCN(S(=O)(=O)c2ccc(C(F)(F)F)cc2)CC1` registered an RP-LC retention time of 892 s.
The same measure for `O=C(C1=CN(c2ccc(Br)cc2)c2ccccc2S1(=O)=O)N1CCCC1`: 838 s; for `Cc1ccc(CNC(=O)c2ccc(CN3CCN(Cc4ccc(F)cc4)C(=O)C3=O)cc2)o1`: 823 s.
The figure for `CCn1cnc(S(=O)(=O)N2CCC(C(=O)Nc3ccc(C)c(N(C)C)c3)CC2)c1` is 588 s; for `CCCc1nc(C2CC(=O)N(c3ccc(OC)cc3)C2)no1` (centres undefined) it is 828 s.
The same measure for `Cc1cc(Cl)ccc1S(=O)(=O)N1CCC(n2cnnc2C)CC1`: 745 s; for `Cc1ccc(C)c(CNC(=O)c2cnc(-c3ccccc3)nc2-c2ccncc2)c1`: 913 s.
`CCCN(C)CC1(O)CCC2(CCN(C(=O)c3ccoc3)CC2)CC1` displayed an RP-LC retention time of 575 s.
With `Cc1nnc(-c2nnc(NC(C)C)c3ccccc23)o1`, the RP-LC retention time stood at 602 s.
`Cc1ccc(NS(=O)(=O)c2cc3c(=O)n(C)ncn3c2)cc1` returned an RP-LC retention time of 821 s.
The same measure for `Cn1cc(-c2cc3n(n2)CCC(=O)N3CC(=O)NCCN2CCOCC2)c2ccccc21`: 612 s; for `CC1CC(=O)N(CC(=O)Nc2cccc([N+](=O)[O-])c2)c2ccccc2S1` (centres undefined): 843 s; for `CN1CCC2(CC1)CN(C(=O)C1CCC1)Cc1ccccc1O2`: 619 s.
